# Measurements taken from US20050112573A1, “Method of detecting toxic substance” (priority 2001, published 2005).
# Test system: yeast genes (level of expressed mRNA)
# Assay: DNA chip analysis of expressed mRNA of yeast genes after 2 h culture with a toxic chemical substance
# Type: cell-based, Saccharomyces cerevisiae S288C
# Method: Yeast (Saccharomyces cerevtisiae S288C (α SUC2mal mel gap2 CUP1)) were cultured at 25° C. on YPD medium (yeast extract 1%, polypepton 2%, glucose 2%). One of toxic chemical substances was added to the cell at logarithmic growth phase, and the cell was further cultured for two hours. Cell was cultured without any chemical substance in the same condition, and was used as control. Concentrations of the chemical substances were defined to inhibit the growth of the yeast but not lead to death.
# After the completion of cultivation, the culture was centrifuged to collect the cells. To the cells, sodium acetate buffer (50 mM sodium acetate, 10 mM EDTA, 1% SDS) was added, and the mixture was shaken at 65° C. for five minutes, followed by returning to room temperature, and obtaining the supernatant, which procedure was repeated two times. To the supernatant, ½ amount of a solution of phenol/chloroform was added, and the mixture was centrifuged to give a supernatant, which was added with an equal amount of chloroform, and the mixture was centrifuged to give a supernatant. To the supernatant, an equal amount of isopropanol containing 0.3 M sodium acetate was added, and the mixture was allowed to stand at room temperature for 30 minutes, after which the mixture was centrifuged to give a sediment of the whole RNAs. Seventy % ethanol was added to the sediment, and the mixture was again centrifuged to give a sediment, which was then dried and dissolved in water. mRNA was isolated from the whole RNAs as followings. In view of the fact that a poly A chain is attached to the 3′ terminus of mRNA, a polynucleotide having a poly T structure which was immobilized on the surface of latex beads was used to trap the mRNA, and then the mRNA was washed and eluted with spine column (Oligotex-dT30<Super>mRNA Purification Kit, Takara). Reverse transcription of the mRNA was conducted with a reverse transcriptase (Super Script II Reverse Transcriptase; catalogue No. 18064-014, GibcoBRL) using fluorescence-labeled nucleotides to give cDNAs that were introduced with Cy3-dUTP or Cy5-dUTP during the reverse transcription.
# The labeled cDNAs were dissolved in TE buffer (10 mM Tris-HCl/1 mM EDTA, pH8.0), and the solution was dropped on the DNA chip containing the whole genes of yeast (DNA Chip Research Inc. Japan) so that the cDNAs were hybridized on the DNA chip at 65° C. for over 12 hours. The fluoresces intensity of the DNA chip was read with a scanner, and the ratio relative to the fluorescence intensity resulting from the absence of chemical substance was estimated as the following, which is shown in Tables 1 to 9: [formula]
# In the Tables, “Intensity” indicated in the rightmost column is a value of the level of expressed mRNA of each gene in control cells as divided by the average level of the expressions of the whole genes.
substance,measurement,setting,value
CdCl2 [(2)],The level of expressed mRNA in the presence of chemical substance/,"yeast gene YKL086W, ratio to control without chemical",1.1
same,The level of expressed mRNA in the presence of chemical substance/The level of expressed mRNA in the absence of chemical substance,yeast gene YKL096W,0.6
same,The level of expressed mRNA in the presence of chemical substance/,"yeast gene YKL151C, ratio to control without chemical substance, 2 h culture",3.1
same,The level of expressed mRNA in the presence of chemical substance/,"yeast gene YKL153W, ratio to control without chemical substance, 2 h culture",1.4
same,The level of expressed mRNA in the presence of chemical substance/The level of expressed mRNA in the absence of chemical substance,yeast gene YKL165C,2.0
same,The level of expressed mRNA in the presence of chemical substance/The level of expressed mRNA in the absence of chemical substance,yeast gene YKL193C,0.8
same,The level of expressed mRNA in the presence of chemical substance/,"yeast gene YKL195W, ratio to control without chemical substance, 2 h culture",0.5
same,The level of expressed mRNA in the presence of chemical substance/in the absence of chemical substance,yeast gene YKR009C,1.2
same,The level of expressed mRNA in the presence of chemical substance/,"yeast gene YKR091W, ratio to control without chemical",2.3
same,The level of expressed mRNA in the presence of chemical substance/,"yeast gene YLR054C, ratio to control without chemical substance, 2 h culture",1.5
same,The level of expressed mRNA in the presence of chemical substance/The level of expressed mRNA in the absence of chemical substance,yeast gene YLR120C,1.9
same,The level of expressed mRNA in the presence of chemical substance/The level of expressed mRNA in the absence of chemical substance,yeast gene YLR136C,9.0
same,The level of expressed mRNA in the presence of chemical substance/,"yeast gene YLR149C, ratio to control without chemical substance, 2 h culture",1.9
same,The level of expressed mRNA in the presence of chemical substance/,"yeast gene YLR152C, ratio to control without chemical substance, 2 h culture",1.3
same,The level of expressed mRNA in the presence of chemical substance/The level of expressed mRNA in the absence of chemical substance,yeast gene YLR178C,6.9
same,The level of expressed mRNA in the presence of chemical substance/,"yeast gene YLR194C, ratio to control without chemical",2.2
same,The level of expressed mRNA in the presence of chemical substance/The level of expressed mRNA in the absence of chemical substance,yeast gene YLR250W,1.0
same,The level of expressed mRNA in the presence of chemical substance/,"yeast gene YLR324W, ratio to control without chemical substance, 2 h culture",1.2
same,The level of expressed mRNA in the presence of chemical substance/The level of expressed mRNA in the absence of chemical substance,yeast gene YLR327C,3.3
same,The level of expressed mRNA in the presence of chemical substance/,"yeast gene YLR350W, ratio to control without chemical substance, 2 h culture",1.9
same,The level of expressed mRNA in the presence of chemical substance/in the absence of chemical substance,yeast gene YLR351C,1.4
same,The level of expressed mRNA in the presence of chemical substance/The level of expressed mRNA in the absence of chemical substance,yeast gene YLR356W,2.9
same,The level of expressed mRNA in the presence of chemical substance/The level of expressed mRNA in the absence of chemical substance,yeast gene YLR362W,1.2
same,The level of expressed mRNA in the presence of chemical substance/in the absence of chemical substance,yeast gene YLR375W,1.5
same,The level of expressed mRNA in the presence of chemical substance/,"yeast gene YLR387C, ratio to control without chemical substance, 2 h culture",1.6
same,The level of expressed mRNA in the presence of chemical substance/The level of expressed mRNA in the absence of chemical substance,yeast gene YLR391W,0.7
same,The level of expressed mRNA in the presence of chemical substance/The level of expressed mRNA in the absence of chemical substance,yeast gene YLR429W,1.0
same,The level of expressed mRNA in the presence of chemical substance/,"yeast gene YLR460C, ratio to control without chemical substance, 2 h culture",2.1
same,The level of expressed mRNA in the presence of chemical substance/,"yeast gene YML117W, ratio to control without chemical substance, 2 h culture",2.2
same,The level of expressed mRNA in the presence of chemical substance/The level of expressed mRNA in the absence of chemical substance,yeast gene YMR004W,0.9
same,The level of expressed mRNA in the presence of chemical substance/,"yeast gene YMR009W, ratio to control without chemical substance, 2 h culture",1.9
same,The level of expressed mRNA in the presence of chemical substance/,"yeast gene YMR067C, ratio to control without chemical substance, 2 h culture",0.9
same,The level of expressed mRNA in the presence of chemical substance/,"yeast gene YMR090W, ratio to control without chemical substance, 2 h culture",9.5
same,The level of expressed mRNA in the presence of chemical substance/The level of expressed mRNA in the absence of chemical substance,yeast gene YMR094W,0.5
same,The level of expressed mRNA in the presence of chemical substance/,"yeast gene YMR095C, ratio to control without chemical",2.0
same,The level of expressed mRNA in the presence of chemical substance/,"yeast gene YMR097C, ratio to control without chemical substance, 2 h culture",1.0
same,The level of expressed mRNA in the presence of chemical substance/,"yeast gene YMR102C, ratio to control without chemical substance, 2 h culture",2.9
same,The level of expressed mRNA in the presence of chemical substance/The level of expressed mRNA in the absence of chemical substance,yeast gene YMR104C,14.3
same,The level of expressed mRNA in the presence of chemical substance/,"yeast gene YMR107W, ratio to control without chemical substance, 2 h culture",3.9
same,The level of expressed mRNA in the presence of chemical substance/,"yeast gene YMR180C, ratio to control without chemical substance, 2 h culture",0.9
same,The level of expressed mRNA in the presence of chemical substance/,"yeast gene YMR184W, ratio to control without chemical substance, 2 h culture",5.4
same,The level of expressed mRNA in the presence of chemical substance/,"yeast gene YMR191W, ratio to control without chemical substance, 2 h culture",2.4
same,The level of expressed mRNA in the presence of chemical substance/The level of expressed mRNA in the absence of chemical substance,yeast gene YMR219W,1.1
same,The level of expressed mRNA in the presence of chemical substance/The level of expressed mRNA in the absence of chemical substance,yeast gene YMR226C,1.8
same,The level of expressed mRNA in the presence of chemical substance/in the absence of chemical substance,yeast gene YMR267W,1.8
same,The level of expressed mRNA in the presence of chemical substance/The level of expressed mRNA in the absence of chemical substance,yeast gene YMR275C,0.7
same,The level of expressed mRNA in the presence of chemical substance/The level of expressed mRNA in the absence of chemical substance,yeast gene YMR276W,1.4
same,The level of expressed mRNA in the presence of chemical substance/in the absence of chemical substance,yeast gene YMR278W,1.7
same,The level of expressed mRNA in the presence of chemical substance/in the absence of chemical substance,yeast gene YMR293C,1.5
same,The level of expressed mRNA in the presence of chemical substance/,"yeast gene YMR295C, ratio to control without chemical substance, 2 h culture",1.0
same,The level of expressed mRNA in the presence of chemical substance/The level of expressed mRNA in the absence of chemical substance,yeast gene YMR314W,1.2
same,The level of expressed mRNA in the presence of chemical substance/,"yeast gene YMR316W, ratio to control without chemical substance, 2 h culture",2.9
same,The level of expressed mRNA in the presence of chemical substance/The level of expressed mRNA in the absence of chemical substance,yeast gene YNL006W,2.1
same,The level of expressed mRNA in the presence of chemical substance/The level of expressed mRNA in the absence of chemical substance,yeast gene YNL007C,2.4
same,The level of expressed mRNA in the presence of chemical substance/,"yeast gene YNL044W, ratio to control without chemical substance, 2 h culture",0.9
